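48-hour exposure; five concentrations; linearly interpolated endpoints. GI50 = concentration required for 50% inhibition of growth.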 The source made the active and inactive calls. Cut-off read from the data, not from the text of the source: active = GI50 up to about 1.1 µM and inactive = higher.
Legend:
Assay in all cases: NCI tumour cell line growth inhibition, 48 h
EKVX = tested on: EKVX
MCF7 = tested on: MCF7
RPMI-8226 = tested on: RPMI-8226
Malme-3M = tested on: Malme-3M
DU-145 = tested on: DU-145
NCI-H522 = tested on: NCI-H522
TK-10 = tested on: TK-10
A549 = tested on: A549
CAKI-1 = tested on: CAKI-1
IGROV-1 = tested on: IGROV-1
RXF 393 = tested on: RXF 393
PC-3 = tested on: PC-3
BT-549 = tested on: BT-549
KM12 = tested on: KM12
A498 = tested on: A498
T47D = tested on: T47D
LOX IMVI = tested on: LOX IMVI
Hs-578T = tested on: Hs-578T
SK-OV-3 = tested on: SK-OV-3
HCT-15 = tested on: HCT-15
OVCAR-8 = tested on: OVCAR-8
SF-268 = tested on: SF-268
SF-295 = tested on: SF-295
OVCAR-4 = tested on: OVCAR-4
SNB-75 = tested on: SNB-75
UO-31 = tested on: UO-31
HL-60 = tested on: HL-60
UACC-257 = tested on: UACC-257
SR = tested on: SR
SF-539 = tested on: SF-539
ACHN = tested on: ACHN
786-0 = tested on: 786-0
HCT-116 = tested on: HCT-116
HOP-62 = tested on: HOP-62
MOLT-4 = tested on: MOLT-4
SK-MEL-2 = tested on: SK-MEL-2
U-251 = tested on: U-251
MDA-MB-435 = tested on: MDA-MB-435
NCI/ADR-RES = tested on: NCI/ADR-RES
M14 = tested on: M14
OVCAR-3 = tested on: OVCAR-3
OVCAR-5 = tested on: OVCAR-5
NCI-H460 = tested on: NCI-H460
HOP-92 = tested on: HOP-92
HT-29 = tested on: HT-29
MDA-MB-231 = tested on: MDA-MB-231
UACC-62 = tested on: UACC-62
NCI-H226 = tested on: NCI-H226
K562 = tested on: K562
SN12C = tested on: SN12C
SNB-19 = tested on: SNB-19
SW-620 = tested on: SW-620
MDA-N = tested on: MDA-N
SK-MEL-28 = tested on: SK-MEL-28
NCI-H23 = tested on: NCI-H23
COLO 205 = tested on: COLO 205
SK-MEL-5 = tested on: SK-MEL-5
CCRF-CEM = tested on: CCRF-CEM

Structure (SMILES): CN(C)C1C(=O)C(C(N)=O)=C(O)C2(O)C(O)=C3C(=O)c4c(O)cccc4C(C)(O)C3CC12 (stereo unspecified)
- GI50 (EKVX): > 100 µM (inactive)
- GI50 (MCF7): > 100 µM (inactive)
- GI50 (RPMI-8226): 81.7 µM (inactive)
- GI50 (Malme-3M): 86.1 µM (inactive)
- GI50 (DU-145): > 100 µM (inactive)
- GI50 (NCI-H522): 86.7 µM (inactive)
- GI50 (TK-10): > 100 µM (inactive)
- GI50 (A549): 86.1 µM (inactive)
- GI50 (CAKI-1): 62.4 µM (inactive)
- GI50 (IGROV-1): 93.3 µM (inactive)
- GI50 (RXF 393): 66.5 µM (inactive)
- GI50 (PC-3): 76.7 µM (inactive)
- GI50 (BT-549): 64 µM (inactive)
- GI50 (KM12): > 100 µM (inactive)
- GI50 (A498): 52.2 µM (inactive)
- GI50 (T47D): > 100 µM (inactive)
- GI50 (LOX IMVI): 59 µM (inactive)
- GI50 (Hs-578T): 63.4 µM (inactive)
- GI50 (SK-OV-3): 55.6 µM (inactive)
- GI50 (HCT-15): 81.1 µM

Structure (SMILES): CC12OC3(C(O)C1O)C(C(=O)O[C@H]3CO[Si](C)(C)C(C)(C)C)C2S(=O)(=O)c1ccccc1 (stereo partly specified)
- GI50 (EKVX): 46.9 µM (inactive)
- GI50 (OVCAR-8): 29.9 µM (inactive)
- GI50 (SF-268): 47.4 µM (inactive)
- GI50 (MCF7): 36.1 µM (inactive)
- GI50 (SF-295): 43.1 µM (inactive)
- GI50 (OVCAR-4): 34 µM (inactive)
- GI50 (RPMI-8226): 27.1 µM (inactive)
- GI50 (SNB-75): 13.9 µM (inactive)
- GI50 (UO-31): 40.8 µM (inactive)
- GI50 (HL-60): 25.9 µM (inactive)
- GI50 (DU-145): > 100 µM (inactive)
- GI50 (UACC-257): 25.8 µM (inactive)
- GI50 (SR): 41.9 µM (inactive)
- GI50 (SF-539): 58.1 µM (inactive)
- GI50 (ACHN): 48.1 µM (inactive)
- GI50 (NCI-H522): 17.5 µM (inactive)
- GI50 (786-0): 71.1 µM (inactive)
- GI50 (TK-10): 59.8 µM (inactive)
- GI50 (A549): 45 µM (inactive)
- GI50 (HCT-116): 61.5 µM (inactive)
- GI50 (HOP-62): > 100 µM (inactive)
- GI50 (MOLT-4): 23.6 µM (inactive)
- GI50 (SK-MEL-2): 88.7 µM (inactive)
- GI50 (U-251): 86.3 µM (inactive)
- GI50 (MDA-MB-435): 34.4 µM (inactive)
- GI50 (IGROV-1): 21 µM (inactive)
- GI50 (PC-3): 26.9 µM (inactive)
- GI50 (NCI/ADR-RES): 11.9 µM (inactive)
- GI50 (M14): 51.2 µM (inactive)
- GI50 (OVCAR-3): 40.6 µM (inactive)
- GI50 (OVCAR-5): > 100 µM (inactive)
- GI50 (NCI-H460): 44.7 µM (inactive)
- GI50 (HOP-92): 38.3 µM (inactive)
- GI50 (HT-29): 33.3 µM (inactive)
- GI50 (KM12): 33.3 µM (inactive)
- GI50 (MDA-MB-231): 60.3 µM (inactive)
- GI50 (UACC-62): 16.1 µM (inactive)
- GI50 (NCI-H226): 5.21 µM (inactive)
- GI50 (K562): 37.8 µM (inactive)
- GI50 (SN12C): > 100 µM (inactive)
- GI50 (SNB-19): 40 µM (inactive)
- GI50 (A498): > 100 µM (inactive)
- GI50 (T47D): 36.1 µM (inactive)
- GI50 (SW-620): 81.5 µM (inactive)
- GI50 (LOX IMVI): 18.7 µM (inactive)
- GI50 (Hs-578T): 30 µM (inactive)
- GI50 (SK-OV-3): > 100 µM (inactive)
- GI50 (HCT-15): 33.7 µM
- GI50 (MDA-N): 61.4 µM (inactive)
- GI50 (SK-MEL-28): 56 µM (inactive)

Structure (SMILES): O=C(Cn1c2ccc(Br)cc2c2nc3ccccc3nc21)N/N=C/c1ccccc1
- GI50 (EKVX): > 100 µM (inactive)
- GI50 (OVCAR-8): > 100 µM (inactive)
- GI50 (NCI-H23): > 100 µM (inactive)
- GI50 (SF-268): 87.3 µM (inactive)
- GI50 (MCF7): > 100 µM (inactive)
- GI50 (SF-295): 16.3 µM (inactive)
- GI50 (RPMI-8226): > 10 µM (inactive)
- GI50 (SNB-75): 83.9 µM (inactive)
- GI50 (UO-31): > 100 µM (inactive)
- GI50 (DU-145): > 100 µM (inactive)
- GI50 (UACC-257): > 100 µM (inactive)
- GI50 (SR): 78.2 µM (inactive)
- GI50 (SF-539): 12.9 µM (inactive)
- GI50 (ACHN): > 100 µM (inactive)
- GI50 (786-0): 12.3 µM (inactive)
- GI50 (TK-10): > 100 µM (inactive)
- GI50 (A549): > 100 µM (inactive)
- GI50 (CAKI-1): > 100 µM (inactive)
- GI50 (HOP-62): 19.1 µM (inactive)
- GI50 (MOLT-4): > 10 µM (inactive)
- GI50 (SK-MEL-2): 83.6 µM (inactive)
- GI50 (U-251): 85.7 µM (inactive)
- GI50 (MDA-MB-435): > 100 µM (inactive)
- GI50 (IGROV-1): > 100 µM (inactive)
- GI50 (RXF 393): 34.9 µM (inactive)
- GI50 (PC-3): > 100 µM (inactive)
- GI50 (NCI/ADR-RES): > 100 µM (inactive)
- GI50 (M14): > 100 µM (inactive)
- GI50 (OVCAR-3): > 100 µM (inactive)
- GI50 (OVCAR-5): > 100 µM (inactive)
- GI50 (HT-29): > 100 µM (inactive)
- GI50 (BT-549): > 100 µM (inactive)
- GI50 (KM12): > 100 µM (inactive)
- GI50 (MDA-MB-231): > 100 µM (inactive)
- GI50 (UACC-62): 72.9 µM (inactive)
- GI50 (NCI-H226): > 100 µM (inactive)
- GI50 (K562): 43.4 µM (inactive)
- GI50 (SN12C): > 100 µM (inactive)
- GI50 (SNB-19): 79.3 µM (inactive)
- GI50 (A498): > 100 µM (inactive)
- GI50 (T47D): > 100 µM (inactive)
- GI50 (COLO 205): > 100 µM (inactive)
- GI50 (SW-620): > 100 µM (inactive)
- GI50 (SK-OV-3): 31.1 µM (inactive)
- GI50 (SK-MEL-5): > 100 µM (inactive)
- GI50 (SK-MEL-28): > 100 µM (inactive)

Structure (SMILES): C=CCCC1CCCCC/C1=N\N(C)C (stereo unspecified)
- GI50 (EKVX): > 100 µM (inactive)
- GI50 (OVCAR-8): > 100 µM (inactive)
- GI50 (NCI-H23): > 100 µM (inactive)
- GI50 (SF-268): > 100 µM (inactive)
- GI50 (MCF7): > 100 µM (inactive)
- GI50 (SF-295): > 100 µM (inactive)
- GI50 (OVCAR-4): > 100 µM (inactive)
- GI50 (RPMI-8226): > 100 µM (inactive)
- GI50 (SNB-75): > 100 µM (inactive)
- GI50 (UO-31): > 100 µM (inactive)
- GI50 (HL-60): > 100 µM (inactive)
- GI50 (DU-145): > 100 µM (inactive)
- GI50 (UACC-257): > 100 µM (inactive)
- GI50 (SR): > 100 µM (inactive)
- GI50 (SF-539): > 100 µM (inactive)
- GI50 (ACHN): > 100 µM (inactive)
- GI50 (NCI-H522): > 100 µM (inactive)
- GI50 (786-0): > 100 µM (inactive)
- GI50 (TK-10): > 100 µM (inactive)
- GI50 (A549): > 100 µM (inactive)
- GI50 (CCRF-CEM): > 100 µM (inactive)
- GI50 (CAKI-1): > 100 µM (inactive)
- GI50 (HCT-116): > 100 µM (inactive)
- GI50 (HOP-62): > 100 µM (inactive)
- GI50 (MOLT-4): > 100 µM (inactive)
- GI50 (SK-MEL-2): > 100 µM (inactive)
- GI50 (U-251): > 100 µM (inactive)
- GI50 (MDA-MB-435): > 100 µM (inactive)
- GI50 (IGROV-1): > 100 µM (inactive)
- GI50 (PC-3): > 100 µM (inactive)
- GI50 (NCI/ADR-RES): > 100 µM (inactive)
- GI50 (M14): > 100 µM (inactive)
- GI50 (OVCAR-3): > 100 µM (inactive)
- GI50 (OVCAR-5): > 100 µM (inactive)
- GI50 (NCI-H460): > 100 µM (inactive)
- GI50 (HOP-92): > 100 µM (inactive)
- GI50 (HT-29): > 100 µM (inactive)
- GI50 (KM12): > 100 µM (inactive)
- GI50 (MDA-MB-231): > 100 µM (inactive)
- GI50 (UACC-62): > 100 µM (inactive)
- GI50 (NCI-H226): > 100 µM (inactive)
- GI50 (K562): > 100 µM (inactive)
- GI50 (SN12C): > 100 µM (inactive)
- GI50 (SNB-19): > 100 µM (inactive)
- GI50 (A498): > 100 µM (inactive)
- GI50 (T47D): > 100 µM (inactive)
- GI50 (COLO 205): > 100 µM (inactive)
- GI50 (SW-620): > 100 µM (inactive)
- GI50 (LOX IMVI): > 100 µM (inactive)
- GI50 (Hs-578T): > 100 µM (inactive)
- GI50 (SK-OV-3): > 100 µM (inactive)
- GI50 (SK-MEL-5): > 100 µM (inactive)
- GI50 (HCT-15): > 100 µM
- GI50 (MDA-N): > 100 µM (inactive)
- GI50 (SK-MEL-28): > 100 µM (inactive)
